Measurements reported in patent publication US20260034111A1, “NOVEL HETEROCYCLES AS sPLA2-X INHIBITORS” (Cayman Chemical Company Incorporated, priority 2022, published 2026).
pIC50: −log10 of the molar value. Read-outs that look alike come from different tables or passages of the source.

Tests used:
Format in all cases: biochemical
[1] = target: T1, sPLA2-X protein (Homo sapiens, UniProt O15496); assay: sPLA2-X enzyme inhibition assay (thio-PC substrate, DTNB detection, absorbance 410 nm); set-up: made in house; host or cells: E. coli; settings: class symbols
T1 sequence (O15496 43-165): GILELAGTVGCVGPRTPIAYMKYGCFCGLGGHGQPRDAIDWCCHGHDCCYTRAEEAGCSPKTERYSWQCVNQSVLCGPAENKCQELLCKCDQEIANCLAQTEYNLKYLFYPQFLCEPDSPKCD
From the text: (§1) Screening Compounds for Inhibition of sPLA2-X, sPLA2-V, and sPLA2-IIA Enzyme Activity
(§2) These sPLA2 enzymes hydrolyze the sn-2 acyl chains of glycerophospholipids, resulting in the release of a free fatty acid and a lysophospholipid. In the case of the thio-PC substrate, this enzymatic hydrolysis results in a free sulfhydryl group remaining on the lysophospholipid. This free sulfhydryl reacts with DTNB to produce the chromogenic product 5-nitro-2-thiobenzoic acid (TNB) which can be quantitated by absorbance at 410 nm. The amount of TNB produced reflects the hydrolytic activity of the enzyme.
(§3) The recombinant human sPLA2 groups IIA, V, and X enzymes were expressed in E. coli and purified to >90% purity by standard biochemical methods.
(§4) Procedure of Enzyme Inhibition for sPLA2-X • 1. […] Dilute the test compounds in 100% DMSO by half-log steps in a 96-well dilution plate using columns 1-11 (one compound per row). Column 12 contains DMSO alone with no compound. • 3. Prepare a 3.5 mM thio-PC substrate solution by drying down 7.2 mg of stock thio-PC in ethanol under a gentle stream of N2 gas. When dry, add 4 mL assay buffer (25 mM Tris, pH7.4; 100 mM KCl; 10 mM CaCl2; 0.1% Triton X-100) and warm in a 37° C. water bath for 20 minutes with intermittent vortexing. • 4. Prepare an “enzyme containing” reaction mix with the following components: 20.4 mL assay buffer; 2 mL DTNB (20 mM in 800 mM Tris, pH8.0); and 11.8 mg recombinant human sPLA2-X enzyme (>95% pure) diluted to a total of 0.8 mL assay buffer. • 5. Prepare a “no enzyme” reaction mix with the following components: 477 μL assay buffer and 45 μL DTNB. • 6. Dispense 58 μL “no enzyme” reaction mix into each of 8 wells (columns 23 and 24, rows M-P). • 7. Dispense 58 μL “enzyme containing” reaction mix into all remaining wells on the plate. • 8. From the 96-well compound dilution plate, add 2 μL from each well for each compound to each of 4 wells with “enzyme containing” reaction mix. Columns 23 and 24 on the assay plate will contain only DMSO (vehicle control). […] After compound addition, mix the contents of each well to ensure that the DMSO is evenly distributed in the well. • 9. Cover the plate and incubate in the dark at room temperature for 15 minutes. • 10. Add 10 μL of thio-PC substrate to all wells. The final concentration of thio-PC in the reactions is 0.5 mM. • 11. Cover the plate and incubate in the dark at room temperature for 30 minutes. • 12. Measure the absorbance of all wells at 410 nm. • 13. Determine the mean absorbance of the “no enzyme” wells. Subtract this value from the absorbance values determined for all other wells (these are now background corrected data). • 14. […] Procedure of Enzyme Inhibition for sPLA2-V • 1. […] Dilute the test compounds in 100% DMSO by half-log steps in a 96-well dilution plate using columns 1-11. Column 12 contains DMSO alone with no compound. • 3. Prepare a 3.5 mM thio-PC substrate solution by drying down 7.2 mg of stock thio-PC in ethanol under a gentle stream of N2 gas. When dry, add 4 mL assay buffer (25 mM Tris, pH7.4; 100 mM KCl; 10 mM CaCl2; 0.1% Triton X-100) and warm in a 37° C. water bath for 20 minutes with intermittent vortexing. • 4. Prepare an “enzyme containing” reaction mix with the following components: 20.4 mL assay buffer; 2 mL DTNB (20 mM in 800 mM Tris, pH8.0); and 12 mg recombinant human sPLA2-V enzyme (>95% pure) diluted to a total of 0.8 mL assay buffer. • 5. Prepare a “no enzyme” reaction mix with the following components: 477 μL assay buffer and […]. • 6. Dispense 58 μL “no enzyme” reaction mix into each of 8 wells (columns 23 and 24, rows M-P). • 7. Dispense 58 μL “enzyme containing” reaction mix into all remaining wells on the plate. • 8. From the 96-well compound dilution plate, add 2 μL from each well for each compound to each of 4 wells with “enzyme containing” reaction mix. Columns 23 and 24 on the assay plate will contain only DMSO (vehicle control).

[2] = target: T2, recombinant human sPLA2-V enzyme (Homo sapiens, UniProt P39877); assay: sPLA2-V enzyme inhibition assay (thio-PC substrate, DTNB detection, absorbance 410 nm); settings: for IC50: read-out: sPLA2 Type V Inhibition (IC50; nM)
T2 construct: made in house; host or cells: E. coli
T2 sequence (P39877 21-138): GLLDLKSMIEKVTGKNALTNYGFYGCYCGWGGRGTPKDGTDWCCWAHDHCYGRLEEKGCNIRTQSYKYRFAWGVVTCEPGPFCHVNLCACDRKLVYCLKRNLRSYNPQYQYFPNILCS
From the text: as §1, §2, §3, §4

[3] = target: T3, recombinant human sPLA2-IIA enzyme (Homo sapiens, UniProt P14555); assay: sPLA2-IIA enzyme inhibition assay (thio-PC substrate, DTNB detection, absorbance 410 nm); settings: class symbols; read-out: sPLA2 Type IIa Inhibition (IC50; nM)
T3 construct: made in house; host or cells: E. coli
T3 sequence (P14555 21-144): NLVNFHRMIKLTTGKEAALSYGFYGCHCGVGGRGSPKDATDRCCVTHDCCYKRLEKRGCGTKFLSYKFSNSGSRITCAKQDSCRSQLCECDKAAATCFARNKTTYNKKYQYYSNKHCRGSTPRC
From the text: as §1, §2, §3, §4

[4] = read-out: sPLA2 Type X Inhibition (IC50; nM)

Structure (SMILES)	IC50 [1, 4]	IC50 ([2]; class symbols)	IC50 [3]	pIC50 ([2]; IC50 value for positive control, sPLA2-V, value the positive control should give per the procedure)	IC50 ([2]; numeric value, control)	IC50 ([1]; sPLA2 Type X Inhibition (IC50; nM))
NC(=O)c1cc2ccc(OC(F)(F)F)cc2n1-c1cccc([C@@H](N)CC(=O)O)c1 [Compound 40, (S)-3-amino-3-(3-(2-carbamoyl-6-(trifluoromethoxy)-1H-indol-1-yl)phenyl)propanoic acid]	> 200 nM	> 5000 nM	> 1000 nM	–	–	–
N[C@@H](CC(=O)O)c1cccc(-n2c(C(=O)O)cc3ccc(OC(F)(F)F)cc32)c1 [Compound 41, (S)-1-(3-(1-amino-2-carboxyethyl)phenyl)-6-(trifluoromethoxy)-1H-indole-2-carboxylic acid]	> 200 nM	> 5000 nM	> 1000 nM	–	–	–
CS(=O)(=O)OCC(F)(F)c1cccc(-n2c(C(N)=O)cc3ccc(OC(F)(F)F)cc32)c1 [Compound 47, 2-(3-(2-carbamoyl-6-(trifluoromethoxy)-1H-indol-1-yl)phenyl)-2,2-difluoroethyl methanesulfonate]	> 200 nM	> 5000 nM	> 1000 nM	–	–	–
NC(=O)c1cc2ccc(OC(F)(F)F)cc2n1-c1cccc(N2CC(F)(F)C2)n1 [Compound 68, 1-(6-(3,3-difluoroazetidin-1-yl)pyridin-2-yl)-6-(trifluoromethoxy)-1H-indole-2-carboxamide]	50 to 200 nM	> 5000 nM	> 1000 nM	–	–	–
NC(=O)c1sc2ccc(OC(F)(F)F)cc2c1-c1cccc(C2(CC(=O)O)CC2)c1 [Compound 36, 2-(1-(3-(2-carbamoyl-5-(trifluoromethoxy)benzo[b]thiophen-3-yl)phenyl)cyclopropyl)acetic acid]	< 20 nM	500 to 1500 nM	> 1000 nM	–	–	–
NC(=O)c1cc2ccc(OC(F)(F)F)cc2n1-c1cncc(CCC(=O)O)c1 [Compound 53]	50 to 200 nM	> 5000 nM	> 1000 nM	–	–	–
COC(=O)CC1(c2cccc(-c3c(C(N)=O)sc4ccc(OC(F)(F)F)cc34)c2)CC1 [Compound 35, methyl 2-(1-(3-(2-carbamoyl-5-(trifluoromethoxy)benzo[b]thiophen-3-yl)phenyl)cyclopropyl)acetate]	> 200 nM	> 5000 nM	> 1000 nM	–	–	–
C/C(=C\C(=O)O)c1cccc(-n2c(C(N)=O)cc3ccc(OC(F)(F)F)cc32)n1 [Compound 6, (E)-3-(6-(2-carbamoyl-6-(trifluoromethoxy)-1H-indol-1-yl)pyridin-2-yl)but-2-enoic acid]	> 200 nM	> 5000 nM	> 1000 nM	–	–	–
C[C@]1(c2cccc(-n3c(C(N)=O)cc4ccc(OC(F)(F)F)cc43)c2)C[C@H]1C(=O)O (relative stereo) [Compound 38a, cis-2-(3-(2-carbamoyl-6-(trifluoromethoxy)-1H-indol-1-yl)phenyl)-2-methylcyclopropane-1-carboxylic acid]	< 20 nM	< 500 nM	200 to 500 nM	–	–	–
CC(C)(C)OC(=O)NC1(c2cccc(-n3c(C(N)=O)cc4ccc(OC(F)(F)F)cc43)n2)CCC1 [Compound 48, tert-butyl (1-(6-(2-carbamoyl-6-(trifluoromethoxy)-1H-indol-1-yl)pyridin-2-yl)cyclobutyl)carbamate]	> 200 nM	> 5000 nM	> 1000 nM	–	–	–
NC(=O)c1oc2ccc(OC(F)(F)F)cc2c1-c1cccc(CCC(=O)O)c1 [Compound 17, 3-(3-(2-carbamoyl-5-(trifluoromethoxy)benzofuran-3-yl)phenyl)propanoic acid]	> 200 nM	> 5000 nM	> 1000 nM	–	–	–
CCc1c(C(=O)C(N)=O)c2c(OCC(=O)O)cccc2n1Cc1ccccc1 [LY315920, Varespladib, reference compound]	–	–	–	~7.00	124 nM	–
NC(=O)c1[se]c2ccc(OC(F)(F)F)cc2c1-c1cccc(C2(CC(=O)O)CC2)c1 [Compound 34, 2-(1-(3-(2-carbamoyl-5-(trifluoromethoxy)benzo[b]selenophen-3-yl)phenyl)cyclopropyl)acetic acid]	–	1500 to 5000 nM	> 1000 nM	–	–	20 to 50 nM
CC(C)(CC(=O)O)c1cccc(-n2c(C(N)=O)cc3ccc(OC(F)(F)F)cc32)c1 [Compound 22, 3-(3-(2-carbamoyl-6-(trifluoromethoxy)-1H-indol-1-yl)phenyl)-3-methylbutanoic acid]	< 20 nM	1500 to 5000 nM	> 1000 nM	–	–	–
NC(=O)c1cc2ccc(OC(F)(F)F)cc2n1-c1ccc2c(c1)C(CC(=O)O)CO2 (stereo not shown) [Compound 1, 2-(5-(2-carbamoyl-6-(trifluoromethoxy)-1H-indol-1-yl)-2,3-dihydrobenzofuran-3-yl)acetic acid]	50 to 200 nM	> 5000 nM	> 1000 nM	–	–	–
NC(=O)c1nc2ccc(OC(F)(F)F)cc2n1-c1cccc(C2CC2C(=O)O)n1 (stereo not drawn) [Compound 58, trans-2-(6-(2-carbamoyl-6-(trifluoromethoxy)-1H-benzo[d]imidazol-1-yl)pyridin-2-yl)cyclopropane-1-carboxylic acid]	> 200 nM	> 5000 nM	> 1000 nM	–	–	–
NC(=O)c1cc2ccc(OC(F)(F)F)cc2n1-c1cccc(C2(CC(=O)O)CC2)c1 [Compound 31, 2-(1-(3-(2-carbamoyl-6-(trifluoromethoxy)-1H-indol-1-yl)phenyl)cyclopropyl)acetic acid]	< 20 nM	< 500 nM	> 1000 nM	–	–	–
COc1cnc2cc(C(N)=O)n(-c3cccc(C4CC4C(=O)O)n3)c2c1 (single isomer, unassigned) [Compound 51, trans-2-(6-(2-carbamoyl-6-methoxy-1H-pyrrolo[3,2-b]pyridin-1-yl)pyridin-2-yl)cyclopropane-1-carboxylic acid]	> 200 nM	> 5000 nM	> 1000 nM	–	–	–
CC(C)(Sc1cccc(-n2c(C(N)=O)cc3ccc(OC(F)(F)F)cc32)c1)C(=O)O [Compound 2, 2-((3-(2-carbamoyl-6-(trifluoromethoxy)-1H-indol-1-yl)phenyl)thio)-2-methylpropanoic acid]	< 20 nM	500 to 1500 nM	200 to 500 nM	–	–	–
NC(=O)c1cc2ccc(OC(F)(F)F)cc2n1-c1ccc2c(c1)C(CC(=O)O)CO2 (single isomer, unassigned; (-)) [Compound 1b, (−)-2-(5-(2-carbamoyl-6-(trifluoromethoxy)-1H-indol-1-yl)-2,3-dihydrobenzofuran-3-yl)acetic acid]	> 200 nM	–	> 1000 nM	–	–	–
